{"source": "paper PMC11305387", "about": "“AlphaFold accelerated discovery of psychotropic agonists targeting the trace amine–associated receptor 1” (Science Advances, 2024)", "key": {"[1]": {"target": "T1, hTAAR1 (Homo sapiens, UniProt Q96RJ0)", "T1 construct": "expressed in transfected cells; host or cells: Expi293F", "T1 sequence (Q96RJ0 1-339)": "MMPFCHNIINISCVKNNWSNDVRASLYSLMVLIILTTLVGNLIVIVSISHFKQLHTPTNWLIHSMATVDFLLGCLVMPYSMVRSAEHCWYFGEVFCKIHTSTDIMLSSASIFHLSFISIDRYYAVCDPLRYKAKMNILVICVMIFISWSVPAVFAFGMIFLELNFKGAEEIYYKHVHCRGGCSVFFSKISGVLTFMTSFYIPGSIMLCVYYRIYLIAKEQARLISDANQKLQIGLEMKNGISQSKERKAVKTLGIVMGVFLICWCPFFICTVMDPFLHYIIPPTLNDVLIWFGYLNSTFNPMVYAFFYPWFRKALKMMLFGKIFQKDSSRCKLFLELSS", "test": "cAMP accumulation assay (GloSensor-22F)", "assay_type": "cell-based", "description": "cAMP accumulation was assessed using a previously described system with some modifications ([45]). hTAAR1 and GloSensor-22F were transected with a 1:1 gene dose (1 μg/ml) in Expi293F cells for 48 hours. Cells were then resuspended in assay buffer [Hanks’ balanced salt solution (HBSS), 10 mM Hepes, 2 mM […] (Promega), and 300 μM 3-isobutyl-1-methylxanthine (Sigma-Aldrich)] and seeded with 25,000 cells per well to a white 384-well plate (CulturPlate, PerkinElmer) and incubated for 1 hour in the dark at RT. After a baseline read, compounds were added, and the plate was read for a further 1 hour (SPARK 10 M, Tecan) with 10-min intervals. The final read at 1 hour was used for analysis."}, "[2]": {"system": "TAAR1-WT and TAAR1-KO mice", "test": "Core-body temperature (CBT) measurement", "assay_type": "in vivo", "description": "Core temperature was determined by a rectal thermoprobe. Compounds or vehicle was administered intraperitoneally. A basal measurement was performed immediately before injection. Measurements were repeated every 30 min for 2 hours. Mean changes in CBT were calculated by subtracting the value from vehicle treated group at the corresponding time point. A washout of 1 week between different doses of compound 65 was applied, and mice were injected starting with the lowest dose first."}, "[3]": {"target": "T2, α2A receptor (Homo sapiens, UniProt P08913)", "T2 construct": "TANGO fusion module (own knowledge, Kroeze et al.: C-terminal V2 tail, TEV site and tTA); 1000000068; host or cells: HTLA (HEK293-derived)", "T2 sequence (P08913 1-465)": "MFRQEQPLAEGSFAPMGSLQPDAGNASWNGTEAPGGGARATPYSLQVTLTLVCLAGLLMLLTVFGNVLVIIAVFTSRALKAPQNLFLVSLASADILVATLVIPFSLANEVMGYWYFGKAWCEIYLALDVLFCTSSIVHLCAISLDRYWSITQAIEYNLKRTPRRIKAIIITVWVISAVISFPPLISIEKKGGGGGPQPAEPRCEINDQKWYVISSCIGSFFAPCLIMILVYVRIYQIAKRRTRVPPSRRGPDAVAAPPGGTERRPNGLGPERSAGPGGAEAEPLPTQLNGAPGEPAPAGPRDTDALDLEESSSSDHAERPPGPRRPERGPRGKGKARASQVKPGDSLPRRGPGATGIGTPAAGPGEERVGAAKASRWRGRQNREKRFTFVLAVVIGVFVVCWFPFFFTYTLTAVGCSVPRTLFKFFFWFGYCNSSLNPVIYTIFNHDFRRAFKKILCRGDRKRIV", "test": "PRESTO-TANGO β-arrestin recruitment", "assay_type": "cell-based"}, "[4]": {"system": "WT and TAAR1-KO mice", "test": "Accelerating rotarod test", "assay_type": "in vivo", "conditions": "1 mg/kg i.p., 30 min after injection", "description": "To test compound 65 for sedative effects, mice were subjected to the accelerating rotarod test as previously described ([77]), with minor modifications. Mice were acclimatized to the rotarod (Ugo Basile, Gemonio, Italy) for 2 days before testing, starting at 4 rotations per minute (RPM) and accelerating to 40 RPM over 300 s. A baseline measure of performance, defined as the latency to fall from the rotarod with a cutoff time of 300 s, was taken before injection with either compound 65 (1 mg/kg), xylazine (5 mg/kg), or vehicle intraperitoneally. The mice were then retested 30 min after injection."}, "[5]": {"target": "T3, 5-HT1D receptor (Homo sapiens, UniProt P28221)", "T3 construct": "TANGO fusion module (own knowledge, Kroeze et al.: C-terminal V2 tail, TEV site and tTA); 1000000068; host or cells: HTLA (HEK293-derived)", "T3 sequence (P28221 whole entry, the tested form may be a part)": "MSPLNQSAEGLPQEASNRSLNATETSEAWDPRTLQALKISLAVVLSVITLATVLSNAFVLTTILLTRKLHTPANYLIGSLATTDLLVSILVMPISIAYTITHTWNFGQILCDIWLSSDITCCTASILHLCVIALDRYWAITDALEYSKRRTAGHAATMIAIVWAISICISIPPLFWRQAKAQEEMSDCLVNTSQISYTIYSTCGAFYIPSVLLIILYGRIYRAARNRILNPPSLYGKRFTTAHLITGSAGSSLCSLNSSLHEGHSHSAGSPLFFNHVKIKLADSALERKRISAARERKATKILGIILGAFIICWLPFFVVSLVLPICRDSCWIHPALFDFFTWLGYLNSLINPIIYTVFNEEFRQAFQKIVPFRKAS", "test": "PRESTO-TANGO β-arrestin recruitment", "assay_type": "cell-based", "description": "Assessment of receptor activation by compounds at all human aminergic receptors were carried out using a modified version of the PRESTO-TANGO method. […] The plate was spun down, and 5 μl of a 1:25 dilution (in DPBS) of polyethylenimine (PEI) derivative (Transporter 5, Polysciences) was added (1:4 cDNA to PEI ratio) and incubated for 20 min at room temperature (RT). […] Luminescence signal was detected using a plate-reader (SPARK, Tecan) with 100-ms integration time and a 100-ms delay between well reads."}, "[6]": {"test": "Thermodynamic solubility", "assay_type": "physicochemical", "conditions": "100 mM potassium phosphate buffer, aqueous buffer, thermodynamic from solid, 100 mM KPO4-buffer pH 7.4, 37°C", "description": "Thermodynamic solubility assay used solid form of compound 65. Solid test compound (~2 to 3 mg) was weighed in a glass high-performance liquid chromatography (HPLC) vial, and 100 mM KPO4-buffer (pH 7.4) was added to give a theoretical max concentration if everything is dissolved of ~5 to 6 mg/ml. The vial was incubated at 900 rpm and 37°C in a rotational shaker for 24 hours. After the incubation, an aliquot (200 μl) was transferred to a glass insert and centrifuged at 10,000g and 37°C for 20 min to separate any solid material from the solution. The supernatant was transferred to a new HPLC vial and analyzed by LC-MS/MS."}, "[7]": {"test": "Metabolic stability in liver microsomes", "conditions": "human liver microsomes, 1 μM"}}, "note": "pEC50: −log10 of the molar value.", "data": [{"smiles": "CC1=C(c2ccco2)CNCC1", "note": "[Compound 65]", "values": [{"measurement": "pEC50", "setting": "[1]", "result": 9.40}, {"measurement": "effect on CBT", "setting": "[2]; TAAR1-KO mice", "result": "no decrease in CBT was observed"}, {"measurement": "maximal reduction of CBT, 5 mg/kg versus 1 mg/kg", "setting": "[2]; TAAR1-WT mice", "result": "did not observe a significant increase in the maximal reduction of CBT"}, {"measurement": "time of peak CBT reduction after injection", "setting": "[2]; TAAR1-WT mice, 0.5 and 1 mg/kg", "result": 30, "unit": "min"}, {"measurement": "time to return of CBT to baseline", "setting": "[2]; TAAR1-WT mice, 0.5 and 1 mg/kg", "result": 2, "unit": "h"}, {"measurement": "effect on CBT", "setting": "[2]; TAAR1-WT mice, 0.5 and 1 mg/kg i.p.", "result": "reduction of CBT"}, {"measurement": "extent of CBT reduction", "setting": "[2]; WT mice, 1 mg/kg, 30 and 60 min after injection", "result": "~ 1 °C"}, {"measurement": "pEC50", "setting": "[3]", "result": 6.00}, {"measurement": "Emax", "setting": "[3]; concentration-response curves", "result": 110, "unit": "%"}, {"measurement": "agonism at the α2A receptor", "setting": "[3]; panel screen", "result": "agonism"}, {"measurement": "effect on rotarod performance (sedation)", "setting": "[4]", "result": "did not influence rotarod performance"}, {"measurement": "pEC50", "setting": "[5]", "result": "< 6.00"}, {"measurement": "Emax", "setting": "[5]", "result": 75, "unit": "%"}, {"measurement": "agonism at the 5-HT1D receptor", "setting": "[5]; panel screen", "result": "agonism"}, {"measurement": "solubility at 24 h", "setting": "[6]", "result": 50, "unit": "mM"}, {"measurement": "intrinsic clearance CLint", "setting": "[7]", "result": 16, "unit": "μl/min per mg"}]}]}
